Data as given in paper PMC8170132, “Kinetics of Abacavir-Induced Remodelling of the Major Histocompatibility Complex Class I Peptide Repertoire” (Frontiers in Immunology, 2021).

How the values were obtained:
HLA-B*57:01fos [1] = molecular target: T1, HLA-B*57:01fos (Homo sapiens, UniProt P01889, D201E/D98Y/E176V/E187L/E204Q/E69M/E70A/G107R/I90N/K202T/L105A/L119I/N104I/N87E/Q89R/Q94S/R106L/R155S/R180L/R86G/S101N/S121V/S35A/S48A/T118I/V36M/Y140S/Y91M); experiment: Fluorescence polarisation dissociation rate measurements; format: binding; settings: for Effect of abacavir on dissociation of the peptide from HLA-B*57:01fos: 60 µM abacavir with competing peptide; for Half life (hours) of dissociation from HLA-B*57:01fos, Comp+Abacavir / Half life (hours) of dissociation from HLA-B*57:01fos, Comp+Tapasin / Half life (hours) of dissociation from HLA-B*57:01fos, Comp+Tapasin+Abacavir: as Comp; for Half life (hours) of dissociation from HLA-B*57:01fos, Comp+Abacavir: plus 60 µM abacavir; for Half life (hours) of dissociation from HLA-B*57:01fos, Comp+Abacavir / Half life (hours) of dissociation from HLA-B*57:01fos, Comp+Tapasin / Half life (hours) of dissociation from HLA-B*57:01fos, Comp+Tapasin+Abacavir / Half life (hours) of dissociation from HLA-B*57:01fos, Comp: fluorescence polarisation, 25°C, one-phase decay, plateau 50 mP (unconstrained for RVD), 3-4 replicates; for Half life (hours) of dissociation from HLA-B*57:01fos, Comp+Tapasin: plus conjugated tapasin-jun-ERp57 C60A (mostly 0.254 µM); for Half life (hours) of dissociation from HLA-B*57:01fos, Comp+Tapasin+Abacavir: plus tapasin-jun-ERp57 C60A and 60 µM abacavir; for Half life (hours) of dissociation from HLA-B*57:01fos, Comp: PBS + 0.5 mg/ml bovine-gamma-globulin, 20 fold excess human β2m, excess unlabelled competing peptide only; for Tapasin dependent enhancement of dissociation: tapasin-jun-ERp57 C60A with competing peptide
T1 construct: Fos leucine zipper (C); made in house
Protocol: (§1) Peptide loaded HLA-B*57:01fos complexes were obtained as described ([50]) by refolding solubilised inclusion bodies of HLA-B*57:01fos heavy chains with human β 2m and UV-labile HLA-B57-conditional peptide ligand.
(§2) Fluorescence polarisation measurements were taken using a SpectraMax i3x Multi-Mode Microplate Reader (Molecular Devices) with rhodamine detection cartridge. All experiments were conducted at 25°C and used PBS supplemented with 0.5 mg/ml bovine-gamma-globulin (Sigma), and a 20 fold molar excess of human β 2m (Fitzgerald) in a volume of 60 µl. Binding of TAMRA-labelled peptides is reported in millipolarisation units (mP) and is obtained from the equation mP = 1,000 × (S – G × P)/(S + G × P), where S and P are background subtracted fluorescence count rates (S = polarisation emission filter is parallel to the excitation filter; P = polarisation emission filter is perpendicular to the excitation filter) and G (grating) is an instrument and assay dependent factor.
HLA-B*57:01fos molecules were UV exposed and then allowed to bind fluorescent peptides overnight at room temperature. Florescence polarisation measurements were taken after the addition of excess non-labelled competitor peptide (otherwise identical to the labelled peptide) in the absence or presence of 60 µM abacavir or conjugated tapasin-jun-ERp57 C60A proteins. […] Most experiments used 0.55 µM HLA-B*57:01fos molecules, but some experiments involved different preparations of HLA-B*57:01fos which required higher concentrations of HLA-B*57:01fos, up to a maximum of 1.38 µM HLA-B*57:01fos, to achieve equivalent polarisation levels.
Supplementary Table 2. Dissociation rates of TAMRA-labelled peptides from HLA-B*57:01fos molecules. The rates at which the indicated peptides dissociated from HLA-B*57:01fos molecules in the presence of excess unlabelled competing peptide (“Comp”), abacavir and tapasin (data shown in figure 7) was measured by Graphpad Prism v9.1.0. The dissociation rates were calculated by performing non-linear regression, using the one-phase decay method, with plateaus constrained to be equal to 50 mP (apart from being unconstrained for RVD peptide). The number of experimental replicates, and the standard deviation in the measured dissociation rates across the replicates is also presented.

HLA-B*57:01fos [2] = molecular target: T1, HLA-B*57:01fos; experiment: Fluorescence polarisation association rate measurements; format: binding; settings: 25°C; for Effect of combined abacavir and tapasin on binding of fluorescent peptide to HLA-B*57:01fos: 60 µM abacavir + tapasin-jun; for Effect of combined abacavir and tapasin on binding of fluorescent peptide to HLA-B*57:01fos / Effect of abacavir on binding of fluorescent peptide to HLA-B*57:01fos / Effect of tapasin on binding of fluorescent peptide to HLA-B*57:01fos: fluorescence polarisation; for Effect of abacavir on binding of fluorescent peptide to HLA-B*57:01fos: 60 µM abacavir; for Intrinsic binding of fluorescent peptide to UV exposed HLA-B*57:01fos: peptide alone, fluorescence polarisation (mP); for Effect of tapasin on binding of fluorescent peptide to HLA-B*57:01fos: tapasin-jun or tapasin-jun ERp57 C60A conjugate
Protocol: as §1, §2
Peptide-receptive HLA-B*57:01fos were obtained by exposing HLA-B*57:01fos complexes loaded with UV labile conditional peptide ligand to ~360 nm light for 20 min at 4°C (“UV exposed” hereafter). The binding of fluorescent peptides to UV exposed HLA-B*57:01fos was monitored in the absence or presence of excess (60 µM) abacavir or tapasin-jun or tapasin-jun ERp57 C60A conjugate. […] Most experiments used 0.55 µM HLA-B*57:01fos molecules, but a minority of experiments involved different preparations of HLA-B*57:01fos which required higher concentrations of HLA-B*57:01fos, up to a maximum of 3.18 µM HLA-B*57:01fos, to achieve equivalent polarisation levels.

HLA-B*58:01 = HLA-B*58:01 (Homo sapiens, UniProt P01889, A329T/C349S/D201E/D98Y/E176V/E187L/E204Q/E69T/G107R/I218V/I90N/K202T/L105A/L119I/N104I/N87E/Q89R/Q94S/R106L/R155S/R180L/R86G/S101N/S121R/S35A/S48A/T118I/V127L/V306I/V36M/Y140S/Y91M); settings: ref [20]–[22]; cited from earlier work
HLA-B*15:02 = HLA-B*15:02 (Homo sapiens, UniProt P01889, A329T/A93T/A95T/C349S/D201E/D98Y/E187L/E204Q/E69M/E70A/H137Y/K202T/L119I/Q94N/R155S/R180L/S121R/S35A/S48A/T118I/V306I/V36M/Y140S/Y91S); settings: ref [20]–[22]; cited from earlier work

Molecule	Effect of abacavir on dissociation of the peptide from HLA-B*57:01fos (HLA-B*57:01fos [1])	Half life (hours) of dissociation from HLA-B*57:01fos, Comp+Abacavir (HLA-B*57:01fos [1]) [h]	Half life (hours) of dissociation from HLA-B*57:01fos, Comp+Tapasin (HLA-B*57:01fos [1]) [h]	Half life (hours) of dissociation from HLA-B*57:01fos, Comp+Tapasin+Abacavir (HLA-B*57:01fos [1]) [h]	Half life (hours) of dissociation from HLA-B*57:01fos, Comp (HLA-B*57:01fos [1]) [h]	Effect of combined abacavir and tapasin on binding of fluorescent peptide to HLA-B*57:01fos (HLA-B*57:01fos [2])	Effect of abacavir on binding of fluorescent peptide to HLA-B*57:01fos (HLA-B*57:01fos [2])	Intrinsic binding of fluorescent peptide to UV exposed HLA-B*57:01fos (HLA-B*57:01fos [2])	Effect of tapasin on binding of fluorescent peptide to HLA-B*57:01fos (HLA-B*57:01fos [2])	Odds ratio of hypersensitivity reaction with HLA-B*58:01 (HLA-B*58:01)	Rate of dissociation from HLA-B*57:01fos (in words) (HLA-B*57:01fos [1]; competing peptide only)	Tapasin dependent enhancement of dissociation (HLA-B*57:01fos [1])	Odds ratio of hypersensitivity reaction with HLA-B*15:02 (HLA-B*15:02)
TSLK*SRVTI	pronounced decrease in the dissociation	22.41	5.12	10.38	7.41	occurred faster than in the presence of tapasin or abacavir alone	binding strongly enhanced	limited intrinsic ability to bind	binding strongly enhanced				
Oc1ncnc2[nH]ncc12 [allopurinol]										> 500			
VTKK*TYEIW [TAMRA labelled canonical HLA-B*57:01 peptide]	minimal impact on the dissociation	373.30	207.90	198.40	374.80	did not enhance the binding		bound to HLA-B*57:01 molecules	catalysed binding of the VTK and ITT peptides to a greater extent than abacavir		hundreds of hours		
KTFK*DVGNLL	pronounced decrease in the dissociation	814.20		62.89	402.30	occurred faster than in the presence of tapasin or abacavir alone	binding strongly enhanced	limited intrinsic ability to bind	binding strongly enhanced			significant	
NC(=O)N1c2ccccc2C=Cc2ccccc21 [carbamazepine]													> 500
KVFK*LQTSL	pronounced decrease in the dissociation	51.83	1.06	2.47	3.27				only slightly enhanced binding			significant	
NTVELRVK*I	pronounced decrease in the dissociation	233.60	1.60	142.70	2.67				did not affect the binding			minimal	
